# How the values were obtained:
# Format in all cases: biochemical
# [1] = target: T1, orotidine 5′-monophosphate decarboxylase (OMPDC) (Saccharomyces cerevisiae, UniProt P03962, S2H/C155S/A160S/N267D)
# T1 sequence (P03962 2-267 S2H/C155S/A160S/N267D): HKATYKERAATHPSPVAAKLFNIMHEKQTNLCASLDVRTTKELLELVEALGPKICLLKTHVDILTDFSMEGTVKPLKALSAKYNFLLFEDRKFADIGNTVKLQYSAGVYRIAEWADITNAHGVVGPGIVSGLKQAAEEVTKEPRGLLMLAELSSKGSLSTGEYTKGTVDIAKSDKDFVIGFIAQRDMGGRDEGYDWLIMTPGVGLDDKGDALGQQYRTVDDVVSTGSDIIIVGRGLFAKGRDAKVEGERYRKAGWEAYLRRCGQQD
# [2] = target: T1, orotidine 5′-monophosphate decarboxylase (OMPDC); remark: listed apart in the source
# [3] = target: T2, orotidine 5′-monophosphate decarboxylase (OMPDC) (Saccharomyces cerevisiae, UniProt P03962, A160S/C155S/N267D/S2H); assay: activation of FEO decarboxylation by added phosphite, nonlinear fit to eq […]
# T2 sequence (P03962 2-267 S2H/C155S/A160S/N267D): T1 sequence (P03962 2-267 S2H/C155S/A160S/N267D)
smiles,measurement,setting,value
"C[C@H]1O[C@@H](n2c(C(=O)O)c(F)c(=O)[nH]c2=O)[C@H](O)[C@@H]1O [5′-dFO, 5′-Deoxy-5-fluoroorotidine]","HPLC initial-velocity decarboxylation assay, purified yeast OMPDC, with and with",[1],0.078 M^−1 s^−1 (kcat/Km)
"O=C(O)c1c(F)c(=O)[nH]c(=O)n1[C@@H]1OC[C@@H](O)[C@H]1O [FEO, 1-(β-D-Erythrofuranosyl)-5-fluoroorotic acid]","spectrophotometric decarboxylation assay at 282 nm, purified yeast OMPDC, with a",[2],10 M^−1 s^−1 (kcat/Km)
"O=[PH](O)O [HPO3^2−, phosphite dianion]",Kd,[3],100 mM
